The source of these data is patent US4122204A, “N-(4-tert-butylphenylthiosulfenyl)-N-alkyl aryl carbamate compounds” (priority 1976, dated 1978).

Values after ≈ are worked out from the molar mass of the structure shown. Where two headings read alike, the source gives them in different places.

The subject of one data set is important economic crops. As to the kind of experiment: Phytotoxicity against important economic crops.
Data set [1] concerns Mexican bean beetle (Epilachna varivestis, Muls.). As to the kind of experiment: Mexican Bean Beetle Leaf Spray Test. It is filed as in vivo. The following applies: for LC50: Epilachna varivestis, 72 h, read-out: Mexican Bean Beetle LD50. The method, then:
(§1) Suspensions of the test compounds were prepared by dissolving one gram of compound in 50 milliliters of acetone in which had been dissolved 0.1 gram (10 percent of the weight of compound) of an alkylphenoxy polyethoxyethanol surfactant, as an emulsifying or dispersing agent. The resulting solution was mixed into 150 milliliters of water to give roughly 200 milliliters of a suspension containing the compound in finely divided form. The thus-prepared stock suspension contained 0.5 percent by weight of test compound. The test concentration in parts per million by weight employed in the tests described hereinbelow were obtained by appropriate dilutions of the stock suspension with water. The test procedures were as follows:
Fourth instar larvae of the Mexican bean beetle (Epilachna varivestis, Muls.), reared on Tendergreen bean plants at a temperature of 80°±5° F. and 50±5 percent relative humidity, were the test insects.
The test compounds were formulated by diluting the stock suspension with water to give a suspension containing 500 parts of test compound per million parts of final formulation. Potted Tendergreen bean plants of standard height and age were placed on a revolving turntable and sprayed with 100-110 milliliters of test compound formulation by use of a DeVilbiss spray gun set at 10 psig air pressure. This application, which lasted 25 seconds, was sufficient to wet plants to run-off. As a control, 100-110 milliliters of a water-acetone-emulsifier solution containing no test compound were also sprayed on infested plants. When dry, the paired leaves were separated and each was placed in a 9 centimeter Petri dish lined with moistened filter paper. Five randomly selected larvae were introduced into each dish, and the dishes were closed. The closed dishes were labeled and held at a temperature of 80°±5° F. for three days. Although the larvae could easily consume the leaf within 24 to 48 hours, no more food was added. Larvae which were unable to move the length of the body, even upon stimulation, were considered dead.

In the next data set the test system is rat. Kind of data set: in vivo. The following applies: for mammalian toxicity (in words): rat, in vivo. The method, then: (§2) These compounds were also evaluated to determine their peroral toxicity to mammals by conventional methods. The animal selected for this experiment was the rat.
(§3) The toxicity is reported in […] required for a 50% kill (LD50).

The nature of a further data set: in vivo. The following applies: rat, in vivo, po. The method, then:
as §2, §3

Data set [2] has as its system house flies (Musca domestica, L.). As to the kind of experiment: Fly Bait Test. It is filed as in vivo. The following applies: 24 h, read-out: House Fly LD50. As for the experimental part: as §1
Four to six day old adult house flies (Musca domestica, L.), reared according to the specifications of the Chemical Specialities Manufacturing Association (Blue Book, McNair-Dorland Co., N.Y. 1954; pages 243-244, 261) under controlled conditions of 80°±5° F. and 50±5 percent relative humidity, were the test insects. The flies were immobilized by anesthetizing with carbon dioxide and twenty five immobilized individuals, males and females, were transferred to a cage consisting of a standard food strainer about five inches in diameter which was inverted over a wrapping-papercovered surface. The test compounds were formulated by diluting the stock suspension with a 10 percent (by weight) sugar solution to give a suspension containing 500 parts of test compound per million parts of final formulation, by weight. Ten milliliters of the test formulation were added to a souffle cup containing a one-inch square of an absorbent cotton pad. This bait cup was introduced and centered on the blotting paper under the food strainer prior to admitting the anesthetized flies. The caged flies were allowed to feed on the bait for twenty four hours, at a temperature of 80°±5° F. and the relative humidity of 50±5 percent.

Data set [3] relates to southern armyworm (Prodenia eridania, (Cram.)). As to the kind of experiment: Southern Armyworm Leaf Spray Test. Type of data set: in vivo. The following applies: for LC50: Spodoptera eridania, 72 h, read-out: Southern Armyworm LD50. The method, then: as §1
Larvae of the southern armyworm (Prodenia eridania, (Cram.)), reared on Tendergreen bean plants at a temperature of 80°±5° F. and a relative humidity of 50±5 percent, constituted the test insects.
The test compounds were formulated by diluting the stock suspension with water to give a suspension containing 500 parts of test compound per million parts of final formulation. Potted Tendergreen bean plants of standard height and age were placed on a revolving turntable and sprayed with 100-110 milliliters of test compound formulation by use of a DeVilbiss spray gun set at 10 psig air pressure. This application, which lasted 25 seconds, was sufficient to wet plants to run-off. As a control, 100-110 milliliters of a water-acetone-emulsifier solution containing no test compound were also sprayed on infested plants. When dry, the paired leaves were separated and each one was placed in a 9 centimeter Petri dish lined with moistened filter paper. Five randomly selected larvae were introduced into each dish and the dishes were closed. The closed dishes were labeled and held at 80-85° F. for three days. Although the larvae could easily consume the whole leaf within twenty-four hours, no more food was added. Larvae which were unable to move the length of the body, even upon stimulation by prodding, were considered dead. Percent mortality was recorded for various concentration levels.

Data set [4] concerns bean aphid (Aphis fabae Scop.). Kind of data set: Bean Aphid Foliage Spray Test. Type of data set: in vivo. To be noted: for LC50: Aphis fabae, foliar, read-out: Aphid LD50. The method, then: as §1
Adults and nymphal stages of the bean aphid (Aphis fabae Scop.) reared on potted dwarf nasturtium plants at 65°-70° F. and 50-70 percent relative humidity, constituted the test insects. For testing purposes, the number of aphids per pot was standardized to 100-150 by trimming plants containing excess aphids.
The test compounds were formulated by diluting the stock suspension with water to give a suspension containing 500 parts of test compound per million parts of final formulation.
The potted plants (one pot per compound tested) infested with 100-150 aphids, were placed on a revolving turntable and sprayed with 100-110 milliliters of test compound formulation by use of a DeVilbiss spray gun set at 40 psig. air pressure. This application, which lasted 25 seconds, was sufficient to wet the plants to run-off. As a control, 100-110 milliliters of a water-acetone-emulsifier solution containing no test compound were also sprayed on infested plants. After spraying, the pots were placed on their sides on a sheet of white standard mimeograph paper which had been previously ruled to facilitate counting. Temperature and humidity in the test room during the 24 hour holding period were 65°-70° F. and 50-70 percent, respectively. Aphids which fell onto the paper and were unable to remain standing after being uprighted were considered dead. Aphids remaining on the plants were observed closely for movement and those which were unable to move the length of the body upon stimulation by prodding were considered dead. Percent mortality was recorded for various concentration levels.

The subject of data set [5] is two-spotted mite (Tetranychus urticae Koch). As to the kind of experiment: Mite Foliage Spray Test. Type of data set: in vivo. To be noted: foliar, 144 h, read-out: Mite LD50. The method, then:
as §1
Adults and numphal stages of the two-spotted mite (Tetranychus urticae Koch), reared on Tendergreen bean plants at 80±5 percent relative humidity, were the test organisms. Infested leaves from a stock culture were placed on the primary leaves of two bean plants six to eight inches in height, growing in a two-and-a-half inch clay pot. 150-200 Mites, a sufficient number for testing, transferred from the excised leaves to the fresh plants in a period of twenty four hours. Following the twenty four hour transfer period, the excised leaves were removed from the infested plants. The test compounds were formulated by diluting the stock suspension with water to give a suspension containing 500 parts of test compound per million parts of final formulation. The potted plants (one pot per compound) were placed on a revolving turntable and sprayed with 100-110 milliliters of test compound formulation by use of a DeVilbiss spray gun set at 40 psig. air pressure. This application, which lasted 25 seconds, was sufficient to wet the plants to run-off. As a control, 100-110 milliliters of a water solution containing acetone and emulsifier in the same concentrations as the test compound formulation, but containing no test compound, were also sprayed on infested plants. The sprayed plants were held at 80±5 percent relative humidity for six days, after which a mortality countr of motile forms was made. Microscopic examination for motile forms was made on the leaves of the test plants. Any individual which was capable of locomotion upon prodding was considered living.

For a further data set, the system named is mites and insects. As to the kind of experiment: Pesticidal activity against mites and insects (general statement). The following applies: in vivo. As for the experimental part:
Selected species of the new compounds were evaluated in comparison with known similar prior art compounds to determine their pesticidal activity against mites and certain insects, including an aphid, a caterpillar, a beetle and a fly. The new compounds were further evaluated for mammalian toxicity.

[6] abbreviates: LD50 value (mammalian toxicity), peroral, unit inferred.
[7] abbreviates: Rat LD50, peroral, dose for mortality rate of 50 percent.
[8] abbreviates: leaf spray, ppm required for 50% kill, three days.
Where [9] appears, read: bait test, ppm required for 50% kill, twenty four hours.
[10] abbreviates: foliage spray, ppm required for 50% kill, 24 hour holding period.
[11] abbreviates: foliage spray, ppm required for 50% kill, six days.

`CN(SSc1ccc(C(C)(C)C)cc1)C(=O)Oc1cccc2c1OC(C)(C)C2` [Compound 3, 2,2-Dimethyl-2,3-dihydro-7-[N-methyl-N-(4-tert-butylphenylthiosulfenyl)carbamoyloxy] benzofuran]: in the data set with important economic crops, the “phytotoxicity (in words)” value is recorded as “low phytotoxicity”. In addition, the LC50 in [1] was 5 µg/mL (≈ 12 µM); in [2], less than 17 µg/mL; in data set [3], 40 µg/mL (≈ 95.8 µM); in data set [4] (24 h), 3 µg/mL (≈ 7.18 µM); in data set [5], greater than 500 µg/mL. The “insecticidal activity against bean beetle (in words)” value in data set [1] (in vivo) is given as “exceptionally high level of insecticidal activity”. Also, the “times less toxic to mammals than parent compound (compound 1)” value in the data set on rat (rat LD50 ratio vs compound 1) is reported as “at least 38 times”. Moreover, the “times less toxic to mammals than 4-methylphenylthiosulfenyl derivative (compound 2)” value with rat (rat LD50 ratio vs compound 2) is “at least 23 times”. Also, the “mammalian toxicity (in words)” value in the data set with rat is listed as “extremely low mammalian toxicity”. Further, the LD50 in “in vivo” (setting [6]) and in the data set “in vivo” (setting [7]) was 453 mg/kg each time. Moreover, the “insecticidal activity against south armyworm (in words)” value in data set [3] (in vivo) is on record as “exceptionally high level of insecticidal activity”. Further, in [4] (in vivo), the “insecticidal activity against aphid (in words)” value is “exceptionally high level of insecticidal activity”.

Consider `CC(C)Oc1ccccc1OC(=O)N(C)SSc1ccc(C(C)(C)C)cc1` [Compound 4, 2-Isopropoxy-[N-methyl-N-(4-tert-butylphenylthiosulfenyl)carbamoyloxy]benzene], for which the “phytotoxicity (in words)” value in the data set with important economic crops is given as “extremely low phytotoxicity”. Moreover, the LC50 in data set [1] was 11 µg/mL (≈ 27.1 µM); in [2] it was 110 µg/mL (≈ 271 µM); in data set [3], 250 µg/mL (≈ 616 µM); in data set [4] (24 h), 22 µg/mL (≈ 54.2 µM); in data set [5], greater than 500 µg/mL. In the data set with rat, the “mammalian toxicity (in words)” value is given as “very low level of mammalian toxicity”. Besides, the LD50 – broadly, the dose expected to kill half of the subjects tested – was greater than 640 mg/kg in the data set “in vivo” (setting [6]) and 640 mg/kg in the data set “in vivo” (setting [7]).

With `Cc1ccc(SSN(C)C(=O)Oc2cccc3c2OC(C)(C)C3)cc1` [Compound 2, 2,2-Dimethyl-2,3-dihydro-7-[N-methyl-N-(4-methylphenyl-thiosulfenyl)carbamoyloxy]benzofuran], the LC50 is 4 µg/mL (≈ 10.7 µM) in [1]; 21 µg/mL (≈ 55.9 µM) in [2]; roughly 25 µg/mL (≈ 66.6 µM) in data set [3]; 1.4 µg/mL (≈ 3.73 µM) in [4] (24 h); 130 µg/mL (≈ 346 µM) in [5]. Further, the LD50 in the data set “in vivo” (setting [6]) and in “in vivo” (setting [7]) was 20 mg/kg throughout. The “pesticidal activity against mites and insects (in words)” value in the data set with mites and insects is recorded as “levels generally comparable to those of the parent compounds”.

Turning to `CNC(=O)Oc1ccccc1OC(C)C` [Compound 5, 2-Isopropoxy-(N-methyl-carbamoyloxy)benzene], the LC50 is 12 µg/mL (≈ 57.3 µM) in data set [1] (setting [8]); 16 µg/mL (≈ 76.5 µM) in data set [2] (setting [9]); 500 µg/mL (≈ 2390 µM) in data set [3] (setting [8]); 16 µg/mL (≈ 76.5 µM) in [4] (setting [10]); greater than 500 µg/mL in [5] (setting [11]). Further, the LD50 in “in vivo” (setting [6]) and in “in vivo” (setting [7]) was 95 to 104 mg/kg in each case.

In the case of `CNC(=O)Oc1cccc2c1OC(C)(C)C2` [Compound 1, 2,2-Dimethyl-2,3-dihydro-7-(N-methylcarbamoyloxy)benzofuran], the LC50 in data set [1] (setting [8]) turned out to be 12 µg/mL (≈ 54.2 µM); in data set [2] (setting [9]), 12 µg/mL (≈ 54.2 µM); in [3] (setting [8]) it was 90 µg/mL (≈ 407 µM); in [4] (setting [10]), 2 µg/mL (≈ 9.04 µM); in [5] (setting [11]), 175 µg/mL (≈ 791 µM). Moreover, the “mammalian toxicity (in words)” value with rat is recorded as “unacceptable levels of mammaliam toxicity”. The LD50 in “in vivo” (setting [6]) and in the data set “in vivo” (setting [7]) was 8 to 14 mg/kg each time.
